Key:
[1] = drug administered after the cardiac load is given; Non patent literature 6; cited from earlier work
[2] = system: transverse aortic constriction (TAC) model; settings: Non patent literature 5; cited from earlier work
CSQ-Tg mice [3] = assay: Improvement effect on left ventricular hypertrophy and lung weight increase in CSQ-Tg mice; type: in vivo; settings: CSQ-Tg female mice, 5 weeks old, 30 mg/kg body weight/day oral QD for 14 days, n=10; p<0.05 vs vehicle (t-test)
Protocol: (§1) Calsequestrin (CSQ) cardiac specific transgenic mice (CSQ-Tg mice), which were reported in Larry R. Jones et al., J. Clin. Invest. 101: 1385-1393, 1998, were obtained from University of Pennsylvania, breeded in our company and put in use. In tests, using male and female mice, administration of a medicament was started on and after the mice reached 5 weeks old. The animals were raised in the conditions: room temperature: 20 to 26° c., humidity: 40 to 70%, illumination time: 12 hours/day (7:00-19:00) by giving a solid feed (CE-2, manufactured by CLEA Japan, Inc.) and tap water. In the CSQ-Tg mice, as already reported, Ca^2+ intracellular release was suppressed; myocardial contraction declined and cardiac output decreased. Cardiac hypertrophy and heart failure developed.
In this example, the effect of compound A′ in improving left ventricular hypertrophy and lung weight increase caused by heart failure was examined.
Compound A′ was suspended in a 0.5% aqueous methylcellulose solution (10 mL/kg) and orally administered to CSQ-Tg female mice of 5 weeks old with heart failure in a dosage of 30 mg/kg body weight/day once per day (QD) for 14 days (n=10). […] Thereafter, lung weight (Lung), left-ventricle weight (LV) and body weight (BW) were individually measured and were standardized with the BW.

CSQ-Tg mice [4] = assay: Atrial weight reduction effect in heart failure model animal (CSQ-Tg mice); type: in vivo; settings: CSQ-Tg male mice, 5 weeks old, 30 mg/kg body weight/day oral QD for 14 days, n=7; p<0.05 vs vehicle (t-test)
Protocol: as §1
In this example, using CSQ-Tg mice as a heart failure model animal, the atrial weight reduction effect of compound A′ was evaluated.
Compound A′ was suspended (10 mL/kg) in a 0.5% aqueous methylcellulose solution (hereinafter in Examples, sometimes referred to as a “vehicle”) and orally administered to CSQ-Tg male mice of 5 weeks old with heart failure in a dosage of 30 mg/kg body weight/day once per day (QD) for 14 days (n=7). To negative control (vehicle administration group) mice, a 0.5% aqueous methylcellulose solution was administered (n=9). Thereafter, the atrial weight of the mice was measured.

CSQ-Tg mice [5] = assay: Effect on survival rate of heart failure model animals (CSQ-Tg mice); type: in vivo; settings: CSQ-Tg female mice, 5 weeks old, 30 mg/kg body weight/day oral QD for 30 days, n=30; log-rank test p<0.001 vs vehicle
Protocol: as §1
In this example, effect of compound A′ on survival rate of heart failure model animals was examined.
Compound A′ was orally administered to CSQ-Tg female mice (n=30) of 5 weeks old in a dosage of 30 mg/kg body weight/day once per day (QD) for 30 days. To negative control (vehicle administration group) mice, a 0.5% aqueous methylcellulose solution was administered (n=30).

| SMILES | Cardiac hypofunction [1] | Cardiac hypertrophy [2] | LV/BW (left-ventricle weight standardized with body weight), average value ± standard deviation (CSQ-Tg mice [3]) | Lung/BW (lung weight standardized with body weight), average value ± standard deviation (CSQ-Tg mice [3]) | Left atrial weight, average value (CSQ-Tg mice [4]) | Survival rate (Kaplan-Meier, FIG. 1) (CSQ-Tg mice [5]) |
| --- | --- | --- | --- | --- | --- | --- |
| C[C@@H](N[C@H]1CCCC[C@@H]1NC(=O)c1ccc(Cl)cc1)c1cccc2ccccc12 [Calhex231] | cardiac hypofunction is not improved | cardiac hypertrophy is improved |  |  |  |  |
| CCc1ccc(C(CC)(CC)NC(=O)c2c(C)nn3c2N[C@@H](c2ccccc2)CC3(C)C)cc1 [Compound A′] |  |  | 7.9 ± 1.0 | 6.8 ± 1.3 | 8.4 mg | significantly improved |

— patent US10849902B2, “Medicament for treating heart failure” (TAKEDA PHARMACEUTICAL COMPANY LIMITED, priority 2015, dated 2020)
